# Measurements as given in paper PMC4912613, “A broad analysis of resistance development in the malaria parasite” (Nature Communications, 2016).
# Read-outs that look alike come from different tables or passages of the source.
# Assays:
# [1] = system: ATQ-R5 (cytb F267V, parent 3D7); assay: Cross-resistance EC50 assay, ATQ-R5; format: cell-based, Plasmodium falciparum; settings: for EC50: Plasmodium falciparum, 3D7, SYBR green 72 hour assay, asynchronized parasites, 96-well or 1536-well format, ATQ-R5
# Source text: (§1) To evaluate potential overlapping activity against known antimalarial drug targets, we performed dose-response studies with each compound against our assembled set of drug-resistant lines and their corresponding parents, in an asexual blood stage proliferation assay (Table 1). Comparisons were made to the drug-sensitive strain 3D7 when a parent was unavailable (TM90C2A, W2 and Dd2). As laboratories conducted EC50 assays with different strains and protocols, all comparisons were made between assays from the same laboratory and under the same assay conditions. Compounds displaying >5-fold EC50 shifts relative to the parent or sensitive strain were flagged as having potentially non-novel targets. Average fold shifts per strain ranged from 0.82 to 2.34, with a median of 1.23 indicating there was not common resistance to any one resistant clone. No resistance patterns were observed when classifying the compounds based on chemical structure, but this was not surprising given the diversity of compounds chosen. On the other hand, given that these confirmed compounds were derived from larger unconfirmed hit lists to which some filtration criteria may have been applied (for example, elimination of obvious dihydrofolate reductase inhibitors[32]), some[10][11][12][13] pre-existing bias may exist in the set. […]
# (§2) Alternatively, a SYBR Green-based proliferation approach was used for the 72-h assay, as previously described. Briefly, a culture of either synchronized or asynchronous parasitized RBCs (0.3% parasitemia and 4% haematocrit) in screening medium (identical to supplemented medium above except no serum was added) was exposed to serial drug dilutions. Plates were incubated at 37 °C and gassed with 93% N2, 4% CO2 and 3% O2 for 72 h. Following incubation, 10 × SYBR Green I (Invitrogen; supplied in 10,000 × concentration) in lysis buffer ([…], 5 mM EDTA, 0.16% Saponin wt per vol and 1.6% Triton X vol per vol) was added to the wells and the plates were incubated overnight at room temperature before plate reading. EC50 assays were repeated three times, taking the average EC50 value from each assay set, and removing any outliers using a single iteration of Grubbs' test, eliminating values with z-scores above the critical z-value (α=0.05). The raw EC50 values for synchronized parasites assayed in a 384-well format are listed in Supplementary Data 4. The raw EC50 values for asynchronous parasites assayed in a 96 or 1536-well format are listed in Supplementary Data 5.
# (§3) EC50 values for each strain were compared with those of the corresponding parent strain to determine fold-shift changes and identify resistance. To minimize the cause variance between assays, all comparisons were conducted between strains assayed under identical conditions. A one-way ANOVA followed by a Dunnet's post-test was conducted in GraphPad Prism to identify significant changes between the parent and resistant strain.
# Dd2 = assay: Cross-resistance EC50 assay, Dd2 parent; format: cell-based, Plasmodium falciparum; settings: for EC50: Plasmodium falciparum
# Source text: Multidrug resistance alleles, including mutations in P. falciparum chloroquine resistance transporter (pfcrt) and P. falciparum multi-drug resistance transporter 1 (pfmdr1) are very common in field isolates. Therefore, we sought to assess the degree to which pre-existing resistance alleles would contribute to a loss of potency for this diverse collection of small molecule compounds. Fifteen clones derived from three main parent lines were chosen to maximize diversity in mutated pathways and genetic backgrounds, thus representing the variety of resistance seen in the field: 3D7 (ref. [23]), W2 (ref. [24]) or Dd2 (ref. [25]). The 3D7 line originates from the clone of a Netherlands clinical isolate strain[23][26] and is generally considered to be drug sensitive, though it does convey resistance to sulfadoxine. Conversely, W2 (ref. [24], [27]) and Dd2 (ref. [25]) are multi-drug-resistant lines originating from the Indochina III/CDC isolate, which contain point mutations in pfcrt as well as amplifications in pfmdr1 and GTP cyclohydrolase.
# as §1, §2, §3
# P. falciparum strain 3D7 = assay: Asexual blood stage 3H-hypoxanthine incorporation assay, 3D7; format: cell-based, Plasmodium falciparum
# Protocol: The 48-h assay was carried out in a 96-well format following standard methods using the ^3H-hypoxanthine incorporation assay. The raw EC50 values corresponding to this assay can be found in Supplementary Data 3. Briefly, this assay relies on the parasite incorporation of labelled hypoxanthine that is proportional to P. falciparum growth. A culture of parasitized RBCs (0.5% parasitemia with a percentage of ring stage higher than 70% of total parasitemia, 2.0% haematocrit) in RPMI-1640, […] and 5 μM hypoxanthine was exposed to drug serial dilutions. Plates were incubated for 24 h at 37 °C, 5% CO2, 5% O2 and 90% N2. After 24 h of incubation, ^3H-hypoxanthine was added and plates were incubated for an additional 24-h period. After that, parasites were harvested on a glass fibre filter using a TOMTEC Cell Harvester 96. Filters were dried and melt-on scintillator sheets were used to determine the incorporation of ^3H-hypoxanthine. Radioactivity was measured using a microbeta counter. Data were normalized using the incorporation of the positive (parasitized RBCs without drug) and negative (same culture with artesunate at 2 μM) controls. All assays were conducted in triplicate using three independently grown cultures, and EC50 values were determined using the XLfit add-in module for Excel (version 2.3.1) from Grafit (version 5.3.1.3), where parameter h is the assay hill slope, x is the compound concentration and y is the inhibition of growth effect. The XLfit equation is: […]
# [2] = system: CYTb-G131S (cytb G131S, parent Dd2); assay: Cross-resistance EC50 assay, CYTb-G131S; format: cell-based, Plasmodium falciparum; settings: for EC50: Plasmodium falciparum, SYBR green 72 hour assay, synchronized parasites, 384-well format
# Source text: as §1, §2, §3
# [3] = system: DHODH (E182D, parent 3D7); assay: Cross-resistance EC50 assay, DHODH; format: cell-based; settings: Plasmodium falciparum, SYBR green 72 hour assay, synchronized parasites, 384-well format
# Source text: as §1, §2, §3
# PfCRT-Q352R (parent Dd2) = assay: Cross-resistance EC50 assay, PfCRT-Q352R; format: cell-based; settings: Plasmodium falciparum, DD2, 72 h, read-out: PfCRT:Q352R (Dd2 Parent) Average EC50
# Source text: as §1, §2, §3
# [4] = system: CYTbQi (cytb G33A, parent Dd2); assay: Cross-resistance EC50 assay, CYTbQi; format: cell-based; settings: Plasmodium falciparum, SYBR green 72 hour assay, synchronized parasites, 384-well format
# Source text: as §1, §2, §3
# [5] = DD2, 72 h, read-out: Dd2 (PARENT) Average EC50
# [6] = DD2, 72 h, read-out: Dd2 (PARENT) EC50 (µM) Average EC50
# [7] = Plasmodium falciparum, 3D7, asexual stage, P. falciparum 3D7, read-out: 3D7 EC50
Structure (SMILES),EC50 [1] [µM],EC50 (Dd2; [5]) [µM],EC50 (Dd2; [6]) [µM],EC50 (P. falciparum strain 3D7; [7]) [nM],"EC50 ([2]; DD2, CYTb:G131S strain) [nM]","EC50 ([3]; 3D7, DHODH strain) [nM]",EC50 (PfCRT-Q352R (parent Dd2)) [nM],"EC50 ([4]; DD2, CYTbQi strain) [nM]",EC50 ([2]; strain CYTb:G131S (Dd2 parent)) [nM],EC50 ([3]; strain DHODH (3D7 parent)) [nM],EC50 ([4]; strain CYTbQi (Dd2 parent)) [nM],"EC50 (Dd2; DD2, read-out: EC50, Dd2 parent) [µM]","fold change in EC50, CYTb-G131S vs parent ([2]; resistance, parent Dd2) [fold]","EC50 (P. falciparum strain 3D7; Plasmodium falciparum, 3D7, text value, read-out: asexual stage EC50) [nM]",resistance in ATQ-R5 vs parent ([1]; EC50 fold-shift under the threshold (5-fold)),"EC50 (P. falciparum strain 3D7; asexual stage, P. falciparum 3D7, read-out: 3D7 EC50) [nM]","EC50 fold-shift, Dd2 compared with 3D7 (Dd2; loss of efficacy) [×]"
COc1ccc(NC(=O)N2CCCCN3[C@H](CN)[C@H](c4ccc(C#Cc5ccccc5)cc4)[C@@H]3C2)cc1 [BRD1095],0.002,0.013,0.00257,40,24,23,12,18,,,,,,,,,
CCCN(CCC)CC(O)COc1ccccc1C(=O)Nc1ccccc1 (stereo not drawn) [MMV006455],0.548,1.21,0.408,530,,,1220,,319,2830,200,,,,,,
COCCNCC(O)Cn1c2ccc(Cl)cc2c2cc(Cl)ccc21 (stereo not drawn) [MMV019017],0.842,0.477,0.998,480,,,582,,929,1040,549,,,,,,
Cc1c(C)n(Cc2ccc(F)cc2)c2ccc(C(=O)NCc3ccco3)cc12 [MMV008149],1.58,0.09,1.63,770,,,139,,> 5000,401,87,0.485,> 38,,,,
CN(C)S(=O)(=O)c1cc(-c2ccc3nccc(-c4cccc(S(N)(=O)=O)c4)c3c2)cnc1N [MMV024038],0.878,0.106,0.509,,,,107,,249,216,164,,,228,,,
COc1ccccc1CNC(=O)CCn1c(=O)[nH]c2ccsc2c1=O [MMV019066],0.023,0.054,0.00951,1670,,,63,,149,53,74,,,,Statistically significant resistance,1670,
Cc1ccc(Cn2c(N3CCC(C(=O)NCc4cccs4)CC3)nc3ccccc32)cc1 [MMV007564],1.33,0.392,0.342,580,,,430,,1300,631,574,,,,,,
COc1ccc2c3c([nH]c2c1)[C@H](CO)N(C(C)=O)CC31CCN(C(=O)Nc2ccccc2F)CC1 [MMV673482],0.025,0.07,0.005,,182,151,71,84,,,,,,,,,
CN(C)CCCN(C)C(=O)C1Cc2cc(-c3ccccc3)ccc2N1S(=O)(=O)c1ccccc1 (stereo not drawn) [MMV028895],0.879,0.349,6.01,,,,240,,390,81,740,,,,,,7.1
